Source: ChEMBL document CHEMBL4000149, “The effect of glycine replacement with flexible ω-amino acids on the antimicrobial and haemolytic activity of an amphipathic cyclic heptapeptide” (Eur J Med Chem, 2015)
Values after ≈ are worked out from the molar mass of the structure shown. Bridge positions count the residues as written; N and C are the ends. Square brackets hold non-standard residues; d marks the D form. Peptide text beside a SMILES is read from it. ξ: configuration not given here. Bip = N[C@@H](Cc1ccc(-c2ccccc2)cc1)C(=O)O; Dip = N[C@H](C(=O)O)C(c1ccccc1)c1ccccc1; 2Nal = N[C@@H](Cc1ccc2ccccc2c1)C(=O)O; Cha = N[C@@H](CC1CCCCC1)C(=O)O; ξAoc(2) = CCCCCCC(N)C(=O)O; ξDab = NCCC(N)C(=O)O; GABA = NCCCC(=O)O

Experiments:
[1] = tested on: Staphylococcus aureus; experiment: Antimicrobial activity against methicillin-resistant Staphylococcus aureus ATCC 33591 by tube dilution method; assay type: functional
[2] = tested on: Escherichia coli; experiment: Antimicrobial activity against Escherichia coli ATCC 25922 by tube dilution method; assay type: functional
[3] = tested on: Enterococcus faecium; experiment: Antimicrobial activity against vancomycin-resistant Enterococcus faecium ATCC 700221 by tube dilution method; assay type: functional
[4] = tested on: Klebsiella pneumoniae; experiment: Antimicrobial activity against multidrug-resistant Klebsiella pneumoniae ATCC 700603 by tube dilution method; assay type: functional
[5] = tested on: Pseudomonas aeruginosa; experiment: Antimicrobial activity against Pseudomonas aeruginosa ATCC 27853 by tube dilution method; assay type: functional
[6] = tested on: Candida albicans; experiment: Antifungal activity against Candida albicans ATCC 200955 by tube dilution method; assay type: functional
[7] = tested on: Acinetobacter baumannii; experiment: Antimicrobial activity against multidrug-resistant Acinetobacter baumannii ATCC BAA-1605 by tube dilution method; assay type: functional
[8] = Toxicity in human erythrocytes assessed as hemolysis after 1 hr; assay type: cell-based, Erythrocyte
[9] = Toxicity in human erythrocytes assessed as hemolysis at 150 uM after 1 hr; assay type: cell-based, Erythrocyte; conditions: read-out: Activity

Structure (SMILES)	MIC [1]	MIC [2]	MIC [3]	MIC [4]	MIC [5]	MIC [6]	MIC [7]	EC50 at 1 hr [8]	hemolysis at 1 h, 150 µM [9]
CC(C)C[C@@H]1NC(=O)CNC(=O)[C@H](Cc2ccc3ccccc3c2)NC(=O)[C@H](CCCNC(=N)N)NC(=O)[C@H](CC(C)C)NC(=O)[C@H](Cc2ccc3ccccc3c2)NC(=O)[C@H](CCCNC(=N)N)NC1=O	8 µM (≈ 7.92 µg/mL)	32 µM (≈ 31.7 µg/mL)	8 µM (≈ 7.92 µg/mL)	128 µM (≈ 127 µg/mL)	64 µM (≈ 63.4 µg/mL)	16 µM (≈ 15.8 µg/mL)	128 µM (≈ 127 µg/mL)	215 µM	27%
CC(C)C[C@@H]1NC(=O)[C@H](Cc2ccc3ccccc3c2)NC(=O)[C@H](CCCNC(=N)N)NC(=O)[C@H]([C@@H](C)O)NC(=O)CNC(=O)[C@H](Cc2ccc3ccccc3c2)NC(=O)[C@H](CCCNC(=N)N)NC1=O (cyclo([2Nal]GTR[2Nal]LR))	32 µM (≈ 31.3 µg/mL)	> 128 µM	64 µM (≈ 62.6 µg/mL)	> 128 µM	> 128 µM	128 µM (≈ 125 µg/mL)	> 128 µM	> 150 µM	< 8%
CC(C)C[C@@H]1NC(=O)CNC(=O)[C@H](Cc2ccc3ccccc3c2)NC(=O)[C@H](CCCCN)NC(=O)[C@H](CC(C)C)NC(=O)[C@H](Cc2ccc3ccccc3c2)NC(=O)[C@H](CCCCN)NC1=O (cyclo([2Nal]GLK[2Nal]LK))	32 µM (≈ 29.9 µg/mL)	128 µM (≈ 120 µg/mL)	16 µM (≈ 14.9 µg/mL)	> 128 µM	128 µM (≈ 120 µg/mL)	64 µM (≈ 59.8 µg/mL)	> 128 µM	> 150 µM	13%
CC(C)C[C@@H]1NC(=O)CNC(=O)[C@H](Cc2ccc(O)cc2)NC(=O)[C@H](CCCNC(=N)N)NC(=O)[C@H](CC(C)C)NC(=O)[C@H](Cc2ccc3ccccc3c2)NC(=O)[C@H](CCCNC(=N)N)NC1=O (cyclo([2Nal]LRYGLR))	128 µM (≈ 122 µg/mL)	> 128 µM	64 µM (≈ 61.2 µg/mL)	> 128 µM	> 128 µM	> 128 µM	> 128 µM	> 150 µM	19%
CC(C)C[C@@H]1NC(=O)CNC(=O)[C@H](Cc2ccc3ccccc3c2)NC(=O)[C@H](CCCNC(=N)N)NC(=O)[C@H](CC2CCCCC2)NC(=O)[C@H](Cc2ccc3ccccc3c2)NC(=O)[C@H](CCCNC(=N)N)NC1=O (cyclo([2Nal][Cha]R[2Nal]GLR))	8 µM (≈ 8.24 µg/mL)	16 µM (≈ 16.5 µg/mL)	16 µM (≈ 16.5 µg/mL)	64 µM (≈ 65.9 µg/mL)	128 µM (≈ 132 µg/mL)	16 µM (≈ 16.5 µg/mL)	64 µM (≈ 65.9 µg/mL)	60 µM	96%
CC(C)C[C@@H]1NC(=O)CNC(=O)[C@H](Cc2c[nH]c3ccccc23)NC(=O)[C@H](CCCNC(=N)N)NC(=O)[C@H](CC(C)C)NC(=O)[C@H](Cc2c[nH]c3ccccc23)NC(=O)[C@H](CCCNC(=N)N)NC1=O (cyclo(GLRWLRW))	128 µM (≈ 124 µg/mL)	> 128 µM	64 µM (≈ 62 µg/mL)	> 128 µM	> 128 µM	> 128 µM	> 128 µM	> 150 µM	< 8%
CC(C)C[C@@H]1NC(=O)C(N)CCNC(=O)[C@H](Cc2ccc3ccccc3c2)NC(=O)[C@H](CCCNC(=N)N)NC(=O)[C@H](CC(C)C)NC(=O)[C@H](Cc2ccc3ccccc3c2)NC(=O)[C@H](CCCNC(=N)N)NC1=O (stereo not given in full) (H-[ξDab]LR[2Nal]LR[2Nal]; lactam 1-C)	32 µM (≈ 33.1 µg/mL)	64 µM (≈ 66.1 µg/mL)	8 µM (≈ 8.27 µg/mL)	64 µM (≈ 66.1 µg/mL)	128 µM (≈ 132 µg/mL)	16 µM (≈ 16.5 µg/mL)	> 128 µM	265 µM	< 8%
CC(C)C[C@@H]1NC(=O)CCCNC(=O)C(N)CCNC(=O)[C@H](Cc2ccc3ccccc3c2)NC(=O)[C@H](CCCNC(=N)N)NC(=O)[C@H](CC(C)C)NC(=O)[C@H](Cc2ccc3ccccc3c2)NC(=O)[C@H](CCCNC(=N)N)NC1=O (stereo not given in full) (H-[ξDab][GABA]LR[2Nal]LR[2Nal]; lactam 1-C)	16 µM (≈ 17.9 µg/mL)	32 µM (≈ 35.8 µg/mL)	8 µM (≈ 8.95 µg/mL)	32 µM (≈ 35.8 µg/mL)	64 µM (≈ 71.6 µg/mL)	16 µM (≈ 17.9 µg/mL)	32 µM (≈ 35.8 µg/mL)	255 µM	12%
CC(C)C[C@@H]1NC(=O)[C@H](Cc2ccc3ccccc3c2)NC(=O)[C@H](CCCNC(=N)N)NC(=O)[C@H](CC2CCCCC2)NC(=O)CNC(=O)[C@H](Cc2ccc3ccccc3c2)NC(=O)[C@H](CCCNC(=N)N)NC1=O (cyclo([2Nal]G[Cha]R[2Nal]LR))	16 µM (≈ 16.5 µg/mL)	32 µM (≈ 33 µg/mL)	16 µM (≈ 16.5 µg/mL)	128 µM (≈ 132 µg/mL)	128 µM (≈ 132 µg/mL)	32 µM (≈ 33 µg/mL)	64 µM (≈ 65.9 µg/mL)	28 µM	99%
CCCCCCC1NC(=O)CNC(=O)[C@H](Cc2ccc3ccccc3c2)NC(=O)[C@H](CCCNC(=N)N)NC(=O)[C@H](CC(C)C)NC(=O)[C@H](Cc2ccc3ccccc3c2)NC(=O)[C@H](CCCNC(=N)N)NC1=O (stereo not given in full) (cyclo([2Nal]G[ξAoc(2)]R[2Nal]LR))	32 µM (≈ 32.6 µg/mL)	32 µM (≈ 32.6 µg/mL)	32 µM (≈ 32.6 µg/mL)	64 µM (≈ 65.2 µg/mL)	128 µM (≈ 130 µg/mL)	64 µM (≈ 65.2 µg/mL)	128 µM (≈ 130 µg/mL)	55 µM	100%
CC(C)C[C@@H]1NC(=O)CNC(=O)[C@H](Cc2ccc3ccccc3c2)NC(=O)[C@H](CCCCN)NC(=O)[C@H](CC(C)C)NC(=O)[C@H](Cc2ccc3ccccc3c2)NC(=O)[C@H](CCCNC(=N)N)NC1=O (cyclo([2Nal]GLR[2Nal]LK))	32 µM (≈ 30.8 µg/mL)	128 µM (≈ 123 µg/mL)	16 µM (≈ 15.4 µg/mL)	> 128 µM	128 µM (≈ 123 µg/mL)	32 µM (≈ 30.8 µg/mL)	> 128 µM	> 150 µM	19%
CC(C)C[C@@H]1NC(=O)CNC(=O)[C@H](Cc2ccc(-c3ccccc3)cc2)NC(=O)[C@H](CCCNC(=N)N)NC(=O)[C@H](CC(C)C)NC(=O)[C@H](Cc2ccc(-c3ccccc3)cc2)NC(=O)[C@H](CCCNC(=N)N)NC1=O (cyclo([Bip]GLR[Bip]LR))	8 µM (≈ 8.34 µg/mL)	16 µM (≈ 16.7 µg/mL)	8 µM (≈ 8.34 µg/mL)	32 µM (≈ 33.4 µg/mL)	64 µM (≈ 66.7 µg/mL)	16 µM (≈ 16.7 µg/mL)	32 µM (≈ 33.4 µg/mL)	16 µM	96%
CC(C)C[C@@H]1NC(=O)CNC(=O)[C@H](C(c2ccccc2)c2ccccc2)NC(=O)[C@H](CCCNC(=N)N)NC(=O)[C@H](CC(C)C)NC(=O)[C@H](C(c2ccccc2)c2ccccc2)NC(=O)[C@H](CCCNC(=N)N)NC1=O (cyclo([Dip]GLR[Dip]LR))	16 µM (≈ 16.7 µg/mL)	64 µM (≈ 66.7 µg/mL)	16 µM (≈ 16.7 µg/mL)	128 µM (≈ 133 µg/mL)	> 128 µM	64 µM (≈ 66.7 µg/mL)	64 µM (≈ 66.7 µg/mL)	145 µM	54%
CCCCCCC1NC(=O)[C@@H](Cc2ccc3ccccc3c2)NC(=O)[C@H](CCCNC(=N)N)NC(=O)[C@H](CC(C)C)NC(=O)CNC(=O)[C@H](Cc2ccc3ccccc3c2)NC(=O)[C@H](CCCNC(=N)N)NC1=O (stereo not given in full)	8 µM (≈ 8.15 µg/mL)	32 µM (≈ 32.6 µg/mL)	8 µM (≈ 8.15 µg/mL)	64 µM (≈ 65.2 µg/mL)	64 µM (≈ 65.2 µg/mL)	16 µM (≈ 16.3 µg/mL)	64 µM (≈ 65.2 µg/mL)	55 µM	92%
CC(C)C[C@@H]1NC(=O)C(N)CCNC(=O)CCCNC(=O)[C@H](Cc2ccc3ccccc3c2)NC(=O)[C@H](CCCNC(=N)N)NC(=O)[C@H](CC(C)C)NC(=O)[C@H](Cc2ccc3ccccc3c2)NC(=O)[C@H](CCCNC(=N)N)NC1=O (stereo not given in full) (H-[ξDab]LR[2Nal]LR[2Nal][GABA]; lactam 1-C)	8 µM (≈ 8.95 µg/mL)	32 µM (≈ 35.8 µg/mL)	8 µM (≈ 8.95 µg/mL)	64 µM (≈ 71.6 µg/mL)	64 µM (≈ 71.6 µg/mL)	32 µM (≈ 35.8 µg/mL)	64 µM (≈ 71.6 µg/mL)	420 µM	< 8%
